In patent publication US12576169B2, “Silicon-fluoride acceptor substituted radiopharmaceuticals and precursors thereof” (Technische Universität München, priority 2019, dated 2026):
Where two headings read alike, the source gives them in different places.

How the values were obtained:
[1] = n-Octanol-PBS partition coefficient (logD7.4); type: physicochemical; conditions: 18F-labeled ligand; n-octanol/PBS pH=7.4; mean ± SD (n = 5)
Experimental: Approx. 0.5 MBq of the ^18F-labeled SiFA-PSMA ligand were added into a test tube containing n-octanol (500 μL) and PBS (500 μL, pH=7.4). After vigorously shaking the two-phase mixture for 3 min at rt, the test tube was centrifuged at 9.000 rpm for 5 min to achieve quantitative phase separation. Finally, 150 μL of each layer were pipetted off and measured for activity using a gamma counter. After repeating the experiment for at least five times, the n-octanol-PBS partition coefficient log D7.4 was calculated according to following formula.

LNCaP cells = assay: Internalization of 18F-labeled ligands into LNCaP cells; type: cell-based, human; conditions: internalized activity at 1 h in % of reference [125I]XII; c = 0.5 nM; LNCaP cells (125.000 cells/well); 37° C., DMEM/F-12 add. 5% BSA; corrected for non-specific binding (10 μm PMPA); mean ± SD (n = 3)
Experimental: LNCaP cells were grown in DMEM/F-12 (add. 10% FCS, v/v) and maintained at 37° C. in a humidified 5% CO2 atmosphere. […] Subsequent to the removal of the culture medium, cells were washed with DMEM-F12 (add. 5% BSA, v/v, 500 μL) and left to equilibrate in DMEM-F12 (add. 5% BSA, v/v, 200 μL) at 37° C. for 15 min. Each well was treated with either DMEM-F12 (add. 5% BSA, v/v, 25 μL) or a 2-(phosphonomethyl)-pentandioic acid (PMPA) solution (100 μM in PBS, 25 μL) for blockade. Afterwards, the ^18F-labeled SiFA-PSMA ligand (5 nM in PBS, 25 μL) was added and the cells were incubated for 1 h at 37° C. The experiment was terminated by placing the 24-well plate on ice for 3 min and removal of the assay medium. Each well was rinsed with HBSS (4° C., 250 μL) and the fractions were combined with the previous assay medium, representing the amount of unbound radioligand. For removal of surface bound activity, LNCaP cells were incubated with PMPA solution (10 μM in PBS, 4° C., 250 μL) for 5 min and rinsed again with PBS (250 μL, 4° C.). The internalized activity was determined by incubation of LNCaP cells with 1 M aq. NaOH (250 μL) for at least 10 min and combination with the fraction of a subsequent wash step with 1 M aq. NaOH (200 μL). Each experiment (control and blockade) was performed in triplicate. […] All internalization studies were accompanied by reference studies using the reference compound XII (2 nM in HBSS add. 1% BSA, v/v), which were performed analogously. Data were corrected for non-specific internalization and normalized to the specific-internalization observed for the radioiodinated reference compound.

[2] = target: T1, human serum albumin (HSA) (Homo sapiens, UniProt P02768); assay: Binding to HSA on a Chiralpak HSA column; type: in vitro ADME; conditions: calibration with nine reference substances
T1 construct: purchased H13H-2433
T1 sequence (P02768 25-609): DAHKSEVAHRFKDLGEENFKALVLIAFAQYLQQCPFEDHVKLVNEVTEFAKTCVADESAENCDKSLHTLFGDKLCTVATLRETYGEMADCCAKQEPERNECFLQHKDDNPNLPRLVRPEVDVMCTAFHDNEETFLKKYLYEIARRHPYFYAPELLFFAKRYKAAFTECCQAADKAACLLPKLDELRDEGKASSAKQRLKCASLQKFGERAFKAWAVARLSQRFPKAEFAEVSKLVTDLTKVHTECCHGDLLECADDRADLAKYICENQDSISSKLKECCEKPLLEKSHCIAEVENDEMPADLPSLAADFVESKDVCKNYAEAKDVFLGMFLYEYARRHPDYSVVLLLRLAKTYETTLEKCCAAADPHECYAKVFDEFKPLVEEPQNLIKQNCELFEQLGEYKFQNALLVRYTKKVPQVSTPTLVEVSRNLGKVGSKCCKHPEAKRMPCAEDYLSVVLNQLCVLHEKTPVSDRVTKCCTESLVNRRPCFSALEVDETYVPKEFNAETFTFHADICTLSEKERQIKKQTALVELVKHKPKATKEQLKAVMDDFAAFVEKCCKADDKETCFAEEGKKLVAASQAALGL
Experimental: For the determination of human serum albumin (HSA) binding, a Chiralpak HSA column (50×3 mm, 5 μm, H13H-2433) was used at a constant flow rate of 0.5 mL/min. The mobile phase composed of a 50 mM NH4OAc solution in water with pH=7 (solvent C) and isopropanol (solvent D) was freshly prepared for each experiment and used only once. The reference substances (Table 1) as well as the analyzed SiFA-PSMA ligands were dissolved in a mixture of solvent C/solvent D (1:1, v/v, 0.5 mg/mL) and eluted from the HSA column (0-3 min: 100% C, 3-20 min: 20% D in C, λ=254 nm). The column was kept at rt and each run was stopped after detection of the signal to reduce the acquisition time. The nine reference substances display an HSA binding range of 13% to 99% and were injected consecutively in order to establish a sigmoidal calibration curve with the software OriginPro 2018b (FIG. 1).

PSMA = PSMA (Homo sapiens, UniProt Q04609); assay: IC50 determination: PSMA binding affinity, competition with [125I]XII on LNCaP cells
PSMA, sequence (Q04609 whole entry): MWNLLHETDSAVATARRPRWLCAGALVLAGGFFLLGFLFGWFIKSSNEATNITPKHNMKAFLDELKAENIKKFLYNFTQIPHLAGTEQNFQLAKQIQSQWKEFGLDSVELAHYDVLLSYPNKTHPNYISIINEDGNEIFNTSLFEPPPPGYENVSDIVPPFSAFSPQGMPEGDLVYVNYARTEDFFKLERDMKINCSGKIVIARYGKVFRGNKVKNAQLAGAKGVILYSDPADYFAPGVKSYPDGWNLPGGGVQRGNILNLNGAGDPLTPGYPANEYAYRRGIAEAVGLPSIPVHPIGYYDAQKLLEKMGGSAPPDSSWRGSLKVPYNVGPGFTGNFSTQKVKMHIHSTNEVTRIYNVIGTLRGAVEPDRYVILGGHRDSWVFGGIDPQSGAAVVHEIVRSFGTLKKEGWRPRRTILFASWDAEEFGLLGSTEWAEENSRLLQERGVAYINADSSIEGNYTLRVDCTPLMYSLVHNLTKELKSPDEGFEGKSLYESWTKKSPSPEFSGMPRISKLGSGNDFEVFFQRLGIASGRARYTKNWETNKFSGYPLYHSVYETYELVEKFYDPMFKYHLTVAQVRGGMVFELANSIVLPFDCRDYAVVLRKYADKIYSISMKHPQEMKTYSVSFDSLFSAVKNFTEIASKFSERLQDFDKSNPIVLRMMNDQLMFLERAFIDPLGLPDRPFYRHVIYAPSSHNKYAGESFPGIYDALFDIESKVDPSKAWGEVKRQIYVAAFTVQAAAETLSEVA
Experimental: LNCaP cells were grown in Dulbecco's Modified Eagle Medium/Nutrient Mixture F-12 (DMEM/F-12, add. 10% fetal calf serum (FCS), v/v) and maintained at 37° C. in a humidified 5% CO2 atmosphere. […] After removal of the culture medium, LNCaP cells were treated with HBSS (add. 1% BSA, v/v, 4° C., 500 μL) and subsequently left 15 min on ice for equilibration in HBSS (add. 1% BSA, v/v, 4° C., 200 μL). […] For the control series, HBSS (add. 1% BSA, v/v, 25 μL) was used instead of the SiFA-PSMA ligand solution. Each concentration and the control were prepared in triplicate. After 1 h incubation on ice, the assay medium was removed and cells were washed with HBSS (200 μL, 4° C.). […] NaOH (200 μL) for at least 10 min and the resulting cell lysate was removed. The wells were treated again with 1 M aq. […] The experiment was repeated for at least three times and the IC50 value calculated using the GraphPad PRISM 8.0.2 software (Graphpad Software Inc., La Jolla, United States).

[3] = LNCaP cells (150.000 cells/well), reference [125I]XII c = 0.2 nM, 1 h, 4° C., HBSS add. 1% BSA, mean ± SD (n = 3)

| SMILES | logD7.4 [1] | Internalization (LNCaP cells) [%] | Binding to HSA [2] [%] | IC50 (PSMA; [3]) [nM] | IC50 (PSMA) [nM] |
| --- | --- | --- | --- | --- | --- |
| CC(C)(C)[Si](F)(c1ccc(C(=O)NC[C@@H](NC(=O)[C@@H](CC(=O)O)NC(=O)CC[C@H](NC(=O)N[C@@H](CCC(=O)O)C(=O)O)C(=O)O)C(=O)N[C@H](CCCCNC(=O)CCC(=O)NCCC[C@@H](NC(=O)CC[C@H](NC(=O)N[C@@H](CCC(=O)O)C(=O)O)C(=O)O)C(=O)O)C(=O)O)cc1)C(C)(C)C [SiFA-PSMA ligand 01 a] | −4.02 ± 0.04 | 162.54 ± 7.08 | ≥99.0 | 7.8 ± 0.8 | – |
| CC(C)(C)[Si](F)(c1ccc(C(=O)NC[C@@H](NC(=O)[C@@H](CCC(=O)O)NC(=O)CC[C@H](NC(=O)N[C@@H](CCC(=O)O)C(=O)O)C(=O)O)C(=O)N[C@H](CCCCNC(=O)CCC(=O)NCCC[C@@H](NC(=O)CC[C@H](NC(=O)N[C@@H](CCC(=O)O)C(=O)O)C(=O)O)C(=O)O)C(=O)O)cc1)C(C)(C)C [SiFA-PSMA ligand 01 b] | −4.04 ± 0.08 | 126.43 ± 4.23 | ≥99.0 | 11.8 ± 2.2 | – |
| CC(C)(C)[Si](F)(c1ccc(C(=O)NC[C@@H](NC(=O)[C@H](CCC(=O)O)NC(=O)CC[C@H](NC(=O)N[C@@H](CCC(=O)O)C(=O)O)C(=O)O)C(=O)N[C@H](CCCCNC(=O)CCC(=O)NCCC[C@@H](NC(=O)CC[C@H](NC(=O)N[C@@H](CCC(=O)O)C(=O)O)C(=O)O)C(=O)O)C(=O)O)cc1)C(C)(C)C [SiFA-PSMA ligand 01 c] | −3.72 ± 0.02 | 175.08 ± 5.93 | ≥98.9 | 17 ± 0.9 | – |
| CC(C)(C)[Si](F)(c1ccc(C(=O)NC[C@@H](NC(=O)[C@@H](CCCNC(N)=O)NC(=O)CC[C@H](NC(=O)N[C@@H](CCC(=O)O)C(=O)O)C(=O)O)C(=O)N[C@H](CCCCNC(=O)CCC(=O)NCCC[C@@H](NC(=O)CC[C@H](NC(=O)N[C@@H](CCC(=O)O)C(=O)O)C(=O)O)C(=O)O)C(=O)O)cc1)C(C)(C)C [SiFA-PSMA ligand 01 d] | −3.28 ± 0.03 | 95.68 ± 9.86 | ≥98.9 | 13 ± 1.2 | – |
| CC(C)(C)[Si](F)(c1ccc(C(=O)NC[C@@H](NC(=O)[C@@H](CN)NC(=O)CC[C@H](NC(=O)N[C@@H](CCC(=O)O)C(=O)O)C(=O)O)C(=O)N[C@H](CCCCNC(=O)CCC(=O)NCCC[C@@H](NC(=O)CC[C@H](NC(=O)N[C@@H](CCC(=O)O)C(=O)O)C(=O)O)C(=O)O)C(=O)O)cc1)C(C)(C)C [SiFA-PSMA ligand 01 e] | −3.96 ± 0.07 | 125.13 ± 1.14 | ≥99.0 | 9.2 ± 1.4 | – |
| CC(C)(C)[Si](F)(c1ccc(C(=O)NC[C@@H](NC(=O)[C@@H](CCCN)NC(=O)CC[C@H](NC(=O)N[C@@H](CCC(=O)O)C(=O)O)C(=O)O)C(=O)N[C@H](CCCCNC(=O)CCC(=O)NCCC[C@@H](NC(=O)CC[C@H](NC(=O)N[C@@H](CCC(=O)O)C(=O)O)C(=O)O)C(=O)O)C(=O)O)cc1)C(C)(C)C [SiFA-PSMA ligand 01 f] | −3.65 ± 0.09 | 123.13 ± 2.14 | 98.9 | 8.3 ± 1.5 | – |
| CC(C)(C)[Si](F)(c1ccc(C(=O)NC[C@@H](NC(=O)[C@@H](CCCCN)NC(=O)CC[C@H](NC(=O)N[C@@H](CCC(=O)O)C(=O)O)C(=O)O)C(=O)N[C@H](CCCCNC(=O)CCC(=O)NCCC[C@@H](NC(=O)CC[C@H](NC(=O)N[C@@H](CCC(=O)O)C(=O)O)C(=O)O)C(=O)O)C(=O)O)cc1)C(C)(C)C [SiFA-PSMA ligand 01 g] | −3.71 ± 0.03 | 104.75 ± 4.37 | 98.9 | 8.7 ± 0.7 | – |
| CC(C)(C)[Si](F)(c1ccc(C(=O)NC[C@@H](NC(=O)[C@H](CCCCN)NC(=O)CC[C@H](NC(=O)N[C@@H](CCC(=O)O)C(=O)O)C(=O)O)C(=O)N[C@H](CCCCNC(=O)CCC(=O)NCCC[C@@H](NC(=O)CC[C@H](NC(=O)N[C@@H](CCC(=O)O)C(=O)O)C(=O)O)C(=O)O)C(=O)O)cc1)C(C)(C)C [SiFA-PSMA ligand 01 h] | −3.71 ± 0.16 | 142.95 ± 7.49 | 98.7 | 8.7 ± 0.6 | – |
| CC(C)(C)[Si](F)(c1ccc(C(=O)NC[C@@H](NC(=O)CNC(=O)CC[C@H](NC(=O)N[C@@H](CCC(=O)O)C(=O)O)C(=O)O)C(=O)N[C@H](CCCCNC(=O)CCC(=O)NCCC[C@@H](NC(=O)CC[C@H](NC(=O)N[C@@H](CCC(=O)O)C(=O)O)C(=O)O)C(=O)O)C(=O)O)cc1)C(C)(C)C [SiFA-PSMA ligand 01 i] | −3.96 ± 0.04 | 160.83 ± 2.72 | 98.9 | 8.8 ± 1.7 | – |
| C[C@H](O)[C@@H](NC(=O)CC[C@H](NC(=O)N[C@@H](CCC(=O)O)C(=O)O)C(=O)O)C(=O)N[C@H](CNC(=O)c1ccc([Si](F)(C(C)(C)C)C(C)(C)C)cc1)C(=O)N[C@H](CCCCNC(=O)CCC(=O)NCCC[C@@H](NC(=O)CC[C@H](NC(=O)N[C@@H](CCC(=O)O)C(=O)O)C(=O)O)C(=O)O)C(=O)O [SiFA-PSMA ligand 01 j] | −3.86 ± 0.07 | 120.83 ± 0.92 | ≥98.9 | 9.2 ± 1.2 | – |
| CC(C)(C)[Si](F)(c1ccc(C(=O)NC[C@@H](NC(=O)[C@@H](Cc2ccccc2)NC(=O)CC[C@H](NC(=O)N[C@@H](CCC(=O)O)C(=O)O)C(=O)O)C(=O)N[C@H](CCCCNC(=O)CCC(=O)NCCC[C@@H](NC(=O)CC[C@H](NC(=O)N[C@@H](CCC(=O)O)C(=O)O)C(=O)O)C(=O)O)C(=O)O)cc1)C(C)(C)C [SiFA-PSMA ligand 01 k] | −2.99 ± 0.02 | 61.61 ± 1.33 | ≥98.9 | 29.4 ± 0.6 | – |
| CC(C)(C)[Si](F)(c1ccc(C(=O)NC[C@@H](NC(=O)[C@H](N)CNC(=O)CC[C@H](NC(=O)N[C@@H](CCC(=O)O)C(=O)O)C(=O)O)C(=O)N[C@H](CCCCNC(=O)CCC(=O)NCCC[C@@H](NC(=O)CC[C@H](NC(=O)N[C@@H](CCC(=O)O)C(=O)O)C(=O)O)C(=O)O)C(=O)O)cc1)C(C)(C)C [SiFA-PSMA ligand 02 a] | −3.65 ± 0.09 | 231.60 ± 14.21 | ≥98.9 | – | 10.2 ± 1.2 |
| CC(C)(C)[Si](F)(c1ccc(C(=O)NC[C@@H](NC(=O)CCCCCNC(=O)CC[C@H](NC(=O)N[C@@H](CCC(=O)O)C(=O)O)C(=O)O)C(=O)N[C@H](CCCCNC(=O)CCC(=O)NCCC[C@@H](NC(=O)CC[C@H](NC(=O)N[C@@H](CCC(=O)O)C(=O)O)C(=O)O)C(=O)O)C(=O)O)cc1)C(C)(C)C [SiFA-PSMA ligand 02 c] | −3.27 ± 0.02 | 156.95 ± 13.21 | ≥99.0 | 5.9 ± 1 | – |
| CC(C)(C)[Si](F)(c1ccc(C(=O)N[C@H](CC(=O)N[C@H](CC(=O)NCCC[C@@H](NC(=O)c2cc(C(=O)O)cc(C(=O)O)c2)C(=O)NCCCC[C@@H](NC(=O)CC[C@H](NC(=O)N[C@@H](CCC(=O)O)C(=O)O)C(=O)O)C(=O)O)C(=O)O)C(=O)N[C@H](CC(=O)NCCC[C@@H](NC(=O)c2cc(C(=O)O)cc(C(=O)O)c2)C(=O)NCCCC[C@@H](NC(=O)CC[C@H](NC(=O)N[C@@H](CCC(=O)O)C(=O)O)C(=O)O)C(=O)O)C(=O)O)cc1)C(C)(C)C [SiFA-PSMA ligand 07] | −3.45 ± 0.01 | 311.75 ± 7.30 | – | – | 5.5 ± 0.6 |
